Measured values from patent publication US20170343554A1, “METHODS OF MEASURING ERBB SIGNALING PATHWAY ACTIVITY TO DIAGNOSE AND TREAT CANCER PATIENTS” (Celcuity LLC, priority 2014, published 2017).
Read-outs that look alike come from different tables or passages of the source.

Experiments:
[1] = system: breast cancer patient cells; assay: CELx Pathway Shutdown single drug tests, impedance biosensor CReMS (Example 4); format: cell-based, human; conditions: one patient breast cancer cell sample expected to be a responder (FIG. 8B)
Description: The physiologic change of the cells and drugs tested was measured with an impedance biosensor CReMS and the summary output from the CReMS is recorded in FIG. 4.
In those experiments involving a combination of drugs, the procedures described in Example 3 were utilized. The list of patient cells and the drug tested with the cells is characterized in FIG. 4.

[2] = system: Patient 54 primary breast cancer cells; assay: Cell attachment signal (CAS) diagnostic assay, impedance biosensor (Example 6); format: cell-based, human; conditions: Patient 54 primary tumor cells, lapatinib with NRG1, fulvestrant with estradiol
Description: (§1) The analyte of the diagnostic test used herein is the cell attachment signal (CAS) that viable patient cells generate, alone or in the presence of cell antagonists, when placed in the well of a microplate and analyzed with an impedance biosensor. For every test, the CAS is measured and analyzed for […] of patient cell samples. • 1) Patient cells only (C) • 2) Patient cells+pathway factor(s) (CF) • 3) Patient cells+pathway factor(s)+confirming agent (CCF)
(§2) To detect whether the signaling pathway is functioning normally, the signaling pathway in a patient's diseased cells are perturbed and the resulting activity is compared to the effect the perturbant has on the signaling pathway activity of their healthy cells or the effect of perturbant on the signaling pathway activity of healthy cells from a patient or patients known to be free of disease. The assay measures the change in CAS between the CF and C cells in a patient's healthy cells relative to the change in CAS between the CF and C cells in the diseased cells. Alternatively, the assay can measure the change in CAS between the CF and the C cells in a patient's diseased cells that can be compared to a known result from a patient or pool of patients known to be free of disease. Essentially, if the signaling pathways are abnormal, the CAS change between the healthy and diseased cells will be different. The measurement of change in CAS between CF and CCF diseased cells from a subject provides confirmation that the CF CAS represents activity of the signaling pathway of interest. In the case where CCF is not changed relative to CF, this would indicate that the signaling pathway activity in CF represents some other signaling pathway activity that is not related to the condition of interest. In these cases, the patient would not be considered to have the disease being analyzed.
(§3) Studies were performed confirming the ability of this cell analysis method to measure specific pathway activity in primary non-transformed malignant and healthy epithelial cells as well as cell lines. Representative data from these studies is shown in FIGS. 10 and 11 for two critical pathways involved in breast cancer, PI3K and ERα.

[3] = system: cells from two HER2 overexpressing breast cancer patients (Patient B1 and B4); assay: CELx Pathway Shutdown test, impedance biosensor CReMS, EGF perturbation (Example 1); format: cell-based, human
Text: The change in impedance for a particular well is proportional to the number of cells and type of attachment the cells have with the impedance microplate. Changes in impedance indicate a response to perturbation of these small cell populations.
Prior to addition to the impedance microplate, the cells were removed from their growth container with versene, counted, and re-suspended in media without serum or other growth factors.

[4] = system: cancer patients (Patients B1, B2, B4, C1, C2); conditions: cited from earlier work
[5] = system: BT474 breast cancer cell line cells; assay: Cell attachment signal (CAS) diagnostic assay, impedance biosensor (Example 6); format: cell-based; conditions: lapatinib with NRG1, fulvestrant with estradiol
Description: as §1, §2, §3

[6] = system: HER2 signaling pathway activity in viable breast cancer cells of non-overexpressed HER2 patients; assay: CELx test of HER2 signaling pathway activity by CAS with perturbing and confirming agents (Example 7); format: cell-based, human; conditions: for % Attenuation of NRG1 Signal: non-overexpressing HER2, HER2-driven disease, clinically relevant single concentration; for attenuation of the NRG1 and EGF driven activity, comparison in words: five patients of Table 17, single concentration
Text: Analyte and measurand: The analyte of the diagnostic test used herein is the cell attachment signal (CAS) that viable patient cells generate, alone or in the presence of specific cell signaling pathway perturbants, when placed in the well of an impedance biosensor microplate and continuously measured for electrical impedance. For every test, the CAS is continuously measured and used in the measurand algorithm for up to four portions of patient cell samples from the same patient. • 1. Patient cells only (C) • 2. Patient cells+perturbing pathway factor 1 (CF1) • 3. Patient cells+perturbing pathway factor 2 (CF2) (if necessary) • 4. Patient cells+perturbing pathway factor(s)+Confirming agent (CCF)
The CAS is quantified for each of the up to four portions of patient samples tested (C, CF1, CF2, CCF). To quantify the signaling pathway activity of a patient's diseased cells, the CAS measured in the CF1 and/or CF2 portions is compared to the CAS measured in the C portion. This enables determination of the change in CAS between the CF and C sample portions relative to the change in CAS between the CCF and CF sample portions to confirm how much of the change between CF and C is related to the signaling pathway of interest.
In using this confirming agent, the difference between the CAS of CF1 and/or CF2 and C can be correctly apportioned to HER2 participation. When this confirming agent is applied to cell samples before the perturbing agent, the perturbing agent is blocked from HER2-receptor-related activities thereby generating a CAS value for CCF below the CF1 and/CF2 CAS values by an amount proportional to the participation of the HER2 receptor in the CF1 and/or CF2 change relative to C.
Standard media based on DMEM/F12 without serum, with antibiotics (e.g. penicillin, streptomycin, amphotericin), and HEPES buffer were purchased and used as delivered from VWR (Radnor, Pa.) or Life Technologies (Grand Island, N.Y.).
The commercial-source cell lines were received on dry ice and cultured according to recommendation by the commercial provider. […] Prior to addition to the impedance microplate, the cells were removed from their growth container with trypsin/EDTA solution, counted, and re-suspended in media with antibiotics, without serum, or other growth factors.
The test procedure used (hereinafter referred to as CELx) comprised the following steps, all performed in 5% CO2, 85% humidity, at 37° C.: • 1. Cell Seeding: 180 uL aliquots containing 15,000 viable epithelial cells from each patient or cell line in mammary epithelial growth media with antibiotics, without serum, or other growth factors were distributed to each designated well (C, CCF, CF1, CF2) of an impedance microplate. Impedance was continuously measured throughout steps 2-4 described below. • 2. Confirming agent (20 uL) was added six hours after seeding to pre-specified CCF wells for each cell sample. […] Perturbing Factors were added (20 uL) 18 hours after seeding to pre-specified CF wells for each sample. Wells not receiving perturbing factor received media as control. • 4. Continuous impedance recordings were made for each test well for each patient typically for at least 15 hours after the perturbing agents were added.

[7] = system: cells from two breast cancer patients (Patients B1 and B2); assay: CELx Anti-Proliferative test, impedance biosensor CReMS (Example 2); format: cell-based, human; conditions: for responsiveness, CReM output (cell index) compared to control cells: continuous recording 48-72 hours
Description: A CELx Anti-Proliferative test was performed using cells from two breast cancer patients (Patients B1 and B2) and the drug Paclitaxel. The physiologic change of the B land B2 cells during the test was measured with an impedance biosensor CReMS and the output from the CReMS is recorded in FIGS. 2A and 2B. The comparison of the CELx test results and the third party clinical reference is recorded in FIG. 2C.
The CReMS, microplate, reagents, and buffers used in Example 1 are the same as those employed in Example 2, except for the therapeutic agent tested. In Example 2, the therapeutic agent, paclitaxel, was tested. Paclitaxel was purchased from Selleck Chemicals (TX, USA).
Breast Cancer cells from Patients B1 and B2 were utilized and handled in the same manner as described in Example 1.
Between 6,000-12,000 cells in each well were seeded onto the impedance microplate containing 120 uL settling media with serum. Forty microliters of the drug paclitaxel were added to one set each of the B1 and B2 cells; another control set of B1 and B2 cells received no drug. The CReMS recording of physiologic change was maintained continuously from when the cells were first seeded on the microplate through complete cellular response, which was between 48-72 hours. The test was performed at 37° C., 5% CO2 and at 75% relative humidity.

[8] = system: MAPK signaling pathway activity of cell sample C54; assay: CAS measurement after culture in fresh or non-fresh base media (Example 8); format: cell-based
Description: Many cell screening assays prescribe a simplified media-buffer that cells are placed in before and during the short time they are tested. The present invention with viable primary patient cells is performed with a base media used to maintain viable primary cell samples such that the cell population remains viable and retains its heterogeneity of individual cell types and a normal distribution of cells representing the different phases of the cell cycle during the complete test time of continuous measurement. […] A further aspect of the method includes replacing the base media with fresh base media within 72 hours of initiating contact with the perturbing or confirming agents.
The data highlights the importance of culturing the cells in fresh base media before a cell sample is contacted with a perturbing or confirming agent.

With `COc1cc2ncnc(Nc3ccc(F)c(Cl)c3)c2cc1OCCCN1CCOCC1` [Gefitinib] the “response in the CReMS testing” value [1] was “did not show a response”.

In the case of `CS(=O)(=O)CCNCc1ccc(-c2ccc3ncnc(Nc4ccc(OCc5cccc(F)c5)c(Cl)c4)c3c2)o1` [Lapatinib], the “effect of the confirming agent on the CAS generated by the pathway factor” value (“effect of the confirming agent” for short) [2] is reported as “reduces”, the “effect of the confirming agent” value ([2]; listed as lapatinib) is reported as “reduced” and the “CELx Pathway Shutdown test prediction of patient response” value ([3]; Patient B1) is reported as “will respond”. The “CELx Pathway Shutdown test prediction of patient response” value ([3]; Patient B4) was “would respond”, the “responsiveness recorded by the third party clinical reference standard” value (“responsiveness recorded” for short) ([4]; Patient B1 (breast cancer)) was “responsive” and the “responsiveness recorded” value ([4]; Patient B4 (breast cancer)) was “responsive”. The “effect of the confirming agent” value [5] was “reduces” and the “effect of the confirming agent” value ([5]; listed as lapatinib) was “reduced”.

With `CCOc1cc2ncc(C#N)c(Nc3ccc(OCc4ccccn4)c(Cl)c3)c2cc1NC(=O)/C=C/CN(C)C` [Neratinib] the “% Attenuation of NRG1 Signal” value ([6]; Patient R20) was 104%, the “% Attenuation of NRG1 Signal” value ([6]; Patient R39) was 107% and the “% Attenuation of NRG1 Signal” value ([6]; Patient R71) was 100%. The “% Attenuation of NRG1 Signal” value ([6]; Patient R82) was 105%, the “% Attenuation of NRG1 Signal” value ([6]; Patient R160) was 118% and the “attenuation of the NRG1 and EGF driven activity, comparison in words” value [6] was “highest percentage attenuation”.

For `CC(=O)O[C@H]1C(=O)[C@@]2(C)[C@H]([C@H](OC(=O)c3ccccc3)[C@]3(O)C[C@H](OC(=O)[C@H](O)[C@@H](NC(=O)c4ccccc4)c4ccccc4)C(C)=C1C3(C)C)[C@]1(OC(C)=O)CO[C@@H]1C[C@@H]2O` [Paclitaxel], the “CELx Anti-Proliferative test prediction of patient response” value ([7]; Patient B1) was “will respond”, the “responsiveness, CReM output (cell index) compared to control cells” value ([7]; Patient B1 cells) was “immediate and continuous responsiveness” and the “CELx Anti-Proliferative test prediction of patient response” value ([7]; Patient B2) was “will respond”. The “time after which the CReM output reverses (test cells begin proliferating, no longer responsive)” value ([7]; Patient B2 cells) was “roughly 24 hours”, the “responsiveness, CReM output (cell index) compared to control cells” value ([7]; Patient B2 cells) was “initial responsiveness” and the “responsiveness recorded” value ([4]; Patient B1 (breast cancer)) was “responsive”. For the same compound, the “responsiveness recorded” value ([4]; Patient B2 (breast cancer)) was “responsive”.

For `C[C@]12CC[C@@H]3c4ccc(O)cc4C[C@@H](CCCCCCCCC[S+]([O-])CCCC(F)(F)C(F)(F)F)[C@H]3[C@@H]1CC[C@@H]2O` (stereo partly drawn) [fulvestrant], the “effect of the confirming agent” value [2] was “reversed”, the “effect of the confirming agent” value ([2]; listed as Fulvestrant) was “reduced” and the “effect of the confirming agent” value [5] was “reversed”. For the same compound, the “effect of the confirming agent” value ([5]; listed as Fulvestrant) was “reduced”.

With “EGF: human epidermal growth factor, perturbing agent of HER1-HER2 receptor pairings” the “% HER2 Participation, ((CF-C) − (CCF-C))/(CF-C))*100” value ([6]; Patient R112) was 25%, the “Measurand (HER2 signal), ~(CF-C) − (CCF-C)” value ([6]; Patient R112) was 103 and the “Total Ligand Signal (CF-C)” value ([6]; Patient R112) was 398. The “CAS (CCF), confirming factor + perturbing factor addition sample” value ([6]; Patient R112, HER2 participation confirming factor added before the perturbing ligand) was 337, the “signaling pathway activity (CAS) on perturbation” value ([8]; cell sample C54 cultured in fresh base media prior to contact) was “significant MAPK signaling pathway activity” and the “signaling pathway activity (CAS) on perturbation” value ([8]; cell sample C54 cultured in non-fresh base media prior to perturbation) was “no signaling pathway activity”.

With Pertuzumab the “% Attenuation of NRG1 Signal” value ([6]; Patient R71) was 68%, the “% Attenuation of NRG1 Signal” value ([6]; Patient R160) was 95% and the “attenuation of the NRG1 and EGF driven activity, comparison in words” value [6] was “significant attenuation”. The “amount of pertuzumab inhibition of NRG1 driven activity, compared with SKBR3” value ([6]; non-overexpressed HER2 patient sample R39 versus overexpressed HER2 cell line SKBR3) was “greater”.
